Results as given in article PMC12735872, “Development of ^18F/^11C-Labeled Pyrrolo-Pyridine/Pyrimidine LRRK2 Selective PET Radioligands” (Pharmaceuticals, 2025).

Legend:
[1] = molecular target: T1, LRRK2 (Homo sapiens, UniProt Q5S007); experiment: In vitro autoradiography, human whole-hemisphere brain slices; format: binding; conditions: human brain slices, baseline
T1 construct: Human brains without pathological findings were acquired from the National Institute of Forensic Medicine; from tissue; host or cells: human post-mortem control brain, whole-hemisphere sections (100 µm)
T1 sequence (Q5S007 whole entry): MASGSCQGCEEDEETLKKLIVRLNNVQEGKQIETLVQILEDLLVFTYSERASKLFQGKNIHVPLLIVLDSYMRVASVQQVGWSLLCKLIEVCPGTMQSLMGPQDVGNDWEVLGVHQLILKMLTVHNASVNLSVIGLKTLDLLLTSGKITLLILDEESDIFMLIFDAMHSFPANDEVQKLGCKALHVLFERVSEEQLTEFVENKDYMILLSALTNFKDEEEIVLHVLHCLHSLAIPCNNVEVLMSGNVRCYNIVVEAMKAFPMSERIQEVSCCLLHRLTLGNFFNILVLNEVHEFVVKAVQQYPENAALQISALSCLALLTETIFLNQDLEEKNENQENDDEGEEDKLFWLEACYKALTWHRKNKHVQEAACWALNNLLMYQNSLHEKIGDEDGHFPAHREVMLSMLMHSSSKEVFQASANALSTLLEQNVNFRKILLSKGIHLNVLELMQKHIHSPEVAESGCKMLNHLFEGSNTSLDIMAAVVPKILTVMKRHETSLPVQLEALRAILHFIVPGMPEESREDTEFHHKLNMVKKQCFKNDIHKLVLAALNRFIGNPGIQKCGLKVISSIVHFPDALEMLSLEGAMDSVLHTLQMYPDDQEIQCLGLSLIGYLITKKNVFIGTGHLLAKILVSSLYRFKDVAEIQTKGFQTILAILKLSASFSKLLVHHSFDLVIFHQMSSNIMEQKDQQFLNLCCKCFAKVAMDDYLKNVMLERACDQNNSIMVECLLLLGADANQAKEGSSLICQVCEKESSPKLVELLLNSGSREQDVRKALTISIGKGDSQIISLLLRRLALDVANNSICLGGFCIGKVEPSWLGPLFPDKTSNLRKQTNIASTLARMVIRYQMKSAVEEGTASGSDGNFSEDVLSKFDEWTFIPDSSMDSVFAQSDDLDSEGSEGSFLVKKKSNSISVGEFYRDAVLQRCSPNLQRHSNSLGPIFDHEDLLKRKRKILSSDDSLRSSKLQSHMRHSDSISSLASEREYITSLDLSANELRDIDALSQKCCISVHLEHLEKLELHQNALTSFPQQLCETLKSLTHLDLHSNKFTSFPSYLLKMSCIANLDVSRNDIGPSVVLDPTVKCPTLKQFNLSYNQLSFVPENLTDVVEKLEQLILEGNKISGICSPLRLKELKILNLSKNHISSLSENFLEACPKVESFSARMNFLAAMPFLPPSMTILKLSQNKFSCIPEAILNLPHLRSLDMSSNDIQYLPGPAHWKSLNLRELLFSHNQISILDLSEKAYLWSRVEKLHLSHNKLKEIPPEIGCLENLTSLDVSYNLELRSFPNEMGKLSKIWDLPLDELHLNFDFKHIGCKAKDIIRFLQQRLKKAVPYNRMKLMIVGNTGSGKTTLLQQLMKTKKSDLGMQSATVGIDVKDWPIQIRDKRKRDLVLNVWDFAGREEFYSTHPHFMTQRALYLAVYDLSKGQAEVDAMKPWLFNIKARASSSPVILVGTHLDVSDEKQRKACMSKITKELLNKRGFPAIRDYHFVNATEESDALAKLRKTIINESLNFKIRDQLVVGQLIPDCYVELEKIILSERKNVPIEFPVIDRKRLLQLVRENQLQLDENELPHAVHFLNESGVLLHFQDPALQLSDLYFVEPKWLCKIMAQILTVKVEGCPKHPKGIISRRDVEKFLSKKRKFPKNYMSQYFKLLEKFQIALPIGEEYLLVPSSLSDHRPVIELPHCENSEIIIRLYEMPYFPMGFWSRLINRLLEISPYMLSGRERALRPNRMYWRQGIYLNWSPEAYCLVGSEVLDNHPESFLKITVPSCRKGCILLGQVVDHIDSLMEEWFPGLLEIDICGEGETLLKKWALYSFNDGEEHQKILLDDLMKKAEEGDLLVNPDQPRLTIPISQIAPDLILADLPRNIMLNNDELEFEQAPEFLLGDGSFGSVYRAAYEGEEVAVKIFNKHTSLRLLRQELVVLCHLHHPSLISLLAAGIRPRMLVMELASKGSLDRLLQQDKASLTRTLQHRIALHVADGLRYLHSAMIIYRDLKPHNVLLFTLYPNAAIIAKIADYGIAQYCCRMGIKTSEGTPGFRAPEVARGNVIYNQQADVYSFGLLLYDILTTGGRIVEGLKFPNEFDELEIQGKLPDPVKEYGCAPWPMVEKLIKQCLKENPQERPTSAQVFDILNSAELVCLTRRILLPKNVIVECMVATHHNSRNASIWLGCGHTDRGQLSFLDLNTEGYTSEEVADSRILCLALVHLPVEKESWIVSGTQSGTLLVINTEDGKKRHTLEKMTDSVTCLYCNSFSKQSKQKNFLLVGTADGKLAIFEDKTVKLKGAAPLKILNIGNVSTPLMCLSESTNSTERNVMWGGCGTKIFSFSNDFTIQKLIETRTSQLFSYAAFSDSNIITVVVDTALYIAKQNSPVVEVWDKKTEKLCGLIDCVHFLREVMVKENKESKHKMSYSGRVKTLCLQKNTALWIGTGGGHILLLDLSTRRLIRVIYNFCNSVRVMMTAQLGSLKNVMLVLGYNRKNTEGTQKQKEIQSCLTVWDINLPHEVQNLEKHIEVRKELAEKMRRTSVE
Description: Human brains without pathological findings were acquired from the National Institute of Forensic Medicine at Karolinska Institutet in Stockholm, Sweden. These brains were obtained during forensic autopsies (designated as control brain) and were processed in a manner like previously described methods. […] The brain was removed, and its tissues were kept in −85 °C until the sectioning process. The whole brain hemispheric slices were subsequently maintained at −25 °C until the commencement of autoradiography procedures. […] The sectioning of the brain and the autoradiography experiments were performed at the Psychiatry section, Department of Neuroscience, Karolinska Institutet, Sweden.
(§1) Whole brain hemispheres were sectioned into horizontal slices with a thickness of 100 µm using a Leica cryomacrocut system. The autoradiographic procedures followed the same protocols established in previous studies conducted in our laboratory. The whole-hemisphere sections of 100 micron thickness were incubated for 90 min at room temperature with their corresponding radiotracer (4 MBq/200 mL) in TRIS buffer (pH 7.4) containing sodium chloride (120 mM), potassium chloride (5 mM), calcium chloride (2 mM), and albumin (0.1% w/v). After incubation, sections were washed three times in the same buffer at room temperature for five minutes each, briefly dipped in ice-cold distilled water, dried, and then placed in the phosphor imaging plates. Binding density standards were prepared by serial dilution of the radioligand stock solution in the assay buffer. Readings were taken with the Fujifilm BAS-5000 (Fujifilm, Tokyo, Japan), while quantitative analysis was conducted with the Multi Gauge 3.2 image analysis software (Fujifilm, Tokyo, Japan). For blocking experiments, adjacent brain sections were co-incubated with LuAF66583 (0.1 µM or 10 µM).

[2] = Stability of formulated radioligand in PBS (analytical HPLC); format: physicochemical; conditions: pH 7.4, for 120 min
Description: The radiochemical purity and stability of all three radioligands ([^11C]3, [^18F]1 and [^18F]2) were determined using analytical HPLC coupled with an XBridge analytical column (C18 5 µm, 4.6 × 150 mm particle size), a Merck-Hitachi L-7100 pump, an L-7400 UV detector, and a GM tube for radioactivity detection (VWR International). A mixture of acetonitrile (25%) and HCO2NH4 (0.1 M aq. solution) (75%) with a flow rate of 2 mL/min was used as HPLC isocratic mobile phase. The HPLC liquid flow was monitored using a UV absorbance detector (λ = 254 nm) in conjunction with a radioactive detector (BETA-flow, Beckman, Fullerton, CA, USA). All three radioligands were eluted with a retention time (tR) of 4.0–4.5 min, and the total run time of the HPLC program was 9 min. The identity of the radiolabeled compound was confirmed by co-injecting the corresponding authentic reference standard.

[3] = tested on: LRRK2; experiment: In vitro autoradiography, NHP brain slices; format: binding; conditions: baseline
Description: as §1, with “µM). […] The thickness differed from human tissue (20 µm).” for “µM).”

| Binding of radioligand in brain slices (ARG) [1] | Stability in PBS buffer [2] | Binding of radioligand in brain slices (ARG) [3] | Compound |
| --- | --- | --- | --- |
| clear binding | demonstrated stability | clear binding | C[C@@H]1C[C@@H]([18F])CN1c1c(C#N)c2c(N)nccc2n1C [[^18F]1, 4-Amino-2-((2R,4R)-4-[^18F]fluoro-2-methylpyrrolidin-1-yl)-1-methyl-1H-pyrrolo[3,2-c]pyridine-3-carbonitrile] |
| displayed binding | demonstrated stability | displayed binding | C[C@@H]1C[C@@H]([18F])CN1c1c(C#N)c2c(N)ncnc2n1C [[^18F]2, 4-Amino-6-((2R,4R)-4-[^18F]fluoro-2-methyl Pyrrolidin-1-yl)-7-methyl-7H-pyrrolo[2,3-d]pyrimidine-5-carbonitrile] |
